According to patent US5061794A, “Cephalosporin derivatives, and antibacterial agents” (priority 1986, dated 1991):
Like-named read-outs stand apart in the source and are kept apart here.

What was measured:
[1] = tested on: E. coli CSH(RE45); assay: microbe, parasite or virus in culture; type: cell-based; settings: Escherichia coli, 16 h, read-out: Minimum Inhibitory Concentration (MIC), *E. coli CSH(RE45), lactamase-producing strain; 10^6 CFU/ml
In short: (§1)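 Agar plate dilution on Mueller Hinton agar containing graded compound levels, inoculated at 10^6 CFU/ml from overnight Mueller Hinton broth cultures. MIC (μg/ml) read after 16 h at 37°C.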

[2] = tested on: E. coli CSH2 (RK1); assay: microbe, parasite or virus in culture; type: cell-based; settings: Escherichia coli, 16 h, read-out: Minimum Inhibitory Concentration (MIC), *E. coli CSH2 (RK1), lactamase-producing strain; 10^6 CFU/ml
In short: as §1

[3] = tested on: E. cloacae 963; assay: in vitro antibacterial activity, agar plate dilution method (MIC); type: cell-based; settings: 10^6 CFU/ml
In short: as §1

[4] = tested on: E. cloacae Nek 39; assay: as above; type: cell-based; settings: Enterobacter cloacae, NEK39, 16 h, read-out: Minimum Inhibitory Concentration (MIC), *E. cloacae Nek 39, lactamase-producing strain; 10^6 CFU/ml
In short: as §1

[5] = tested on: E. coli GN5482; assay: as above; type: cell-based; settings: Escherichia coli, GN5482, 16 h
In short: as §1

[6] = tested on: E. coli NIHJ JC2; assay: as above; type: cell-based; settings: Escherichia coli, NIHJJC2, 16 h, read-out: Minimum Inhibitory Concentration (MIC), E. coli NIHJ JC2, 10^6 CFU/ml, 37° C.
In short: as §1

[7] = tested on: K. oxytoca GN10650; assay: as above; type: cell-based; settings: Klebsiella oxytoca, GN10650, 16 h, read-out: Minimum Inhibitory Concentration (MIC), *K. oxytoca GN10650, lactamase-producing strain; 10^6 CFU/ml
In short: as §1

[8] = tested on: K. pneumoniae No. 42; assay: as above; type: cell-based; settings: Klebsiella pneumoniae, NO.42, 16 h, read-out: Minimum Inhibitory Concentration (MIC), *K. pneumoniae No. 42, lactamase-producing strain; 10^6 CFU/ml
In short: as §1

[9] = tested on: K. pneumoniae PCI-602; assay: as above; type: cell-based; settings: Klebsiella pneumoniae, PCI602, 16 h, 10^6 CFU/ml
In short: as §1

[10] = tested on: M. morganii GN5407; assay: as above; type: cell-based; settings: Morganella morganii, GN5407, 16 h, read-out: Minimum Inhibitory Concentration (MIC), *M. morganii GN5407, lactamase-producing strain; 10^6 CFU/ml
In short: as §1

[11] = tested on: P. vulgaris HX-19; assay: as above; type: cell-based; settings: Proteus vulgaris, HX19, 16 h, P. vulgaris HX-19; 10^6 CFU/ml; read-out: Minimum Inhibitory Concentration (MIC)
In short: as §1

[12] = tested on: P. vulgaris No. 33; assay: as above; type: cell-based; settings: Proteus vulgaris, NO.33, 16 h, read-out: Minimum Inhibitory Concentration (MIC), *P. vulgaris No. 33, lactamase-producing strain; 10^6 CFU/ml
In short: as §1

[13] = tested on: S. aureus 209P NIHJ-JC1; assay: as above; type: cell-based; settings: Staphylococcus aureus, 16 h, read-out: Minimum Inhibitory Concentration (MIC)
In short: as §1

[14] = tested on: S. marcescens IAM 1184; assay: as above; type: cell-based; settings: Serratia marcescens, IAM1184, 16 h, read-out: Minimum Inhibitory Concentration (MIC)
In short: as §1

[15] = tested on: S. marcescens No. 16-2; assay: as above; type: cell-based; settings: Serratia marcescens, NO.162, 16 h
In short: as §1

[16] = tested on: Ps. aeruginosa AK 109; assay: as above; type: cell-based, Pseudomonas aeruginosa; settings: Pseudomonas aeruginosa, AK109, 16 h, 10^6 CFU/ml
In short: as §1

[17] = tested on: Ps. aeruginosa AKR17; assay: as above; type: cell-based, Pseudomonas aeruginosa; settings: Pseudomonas aeruginosa, AKR17, 16 h
In short: as §1

[18] = tested on: Ps. aeruginosa IF03445; assay: as above; type: cell-based, Pseudomonas aeruginosa; settings: Pseudomonas aeruginosa, IF03445, 16 h, read-out: Minimum Inhibitory Concentration (MIC), Ps. aeruginosa IF03445; 10^6 CFU/ml
In short: as §1

[19] = tested on: Ps. cepacia 23; assay: as above; type: cell-based, Pseudomonas cepacia; settings: Burkholderia cepacia, 16 h; Ps. cepacia 23; 10^6 CFU/ml; read-out: Minimum Inhibitory Concentration (MIC)
In short: as §1

[20] = tested on: A. calcoaceticus No. 4; assay: as above; type: cell-based, Acinetobacter calcoaceticus; settings: Acinetobacter calcoaceticus, NO.4, 16 h, 10^6 CFU/ml
In short: as §1

[21] = Enterobacter cloacae, 963, 16 h, read-out: Minimum Inhibitory Concentration (MIC), E. cloacae 963
[22] = read-out: Minimum Inhibitory Concentration (MIC)
[23] = read-out: Minimum Inhibitory Concentration (MIC), K. pneumoniae PCI-602
[24] = A. calcoaceticus No. 4, read-out: Minimum Inhibitory Concentration (MIC)
[25] = read-out: Minimum Inhibitory Concentration (MIC), *E. coli GN5482, lactamase-producing strain, 10^6 CFU/ml
[26] = S. aureus 209P NIHJ-JC1, 10^6 CFU/ml, 37° C., 16 hours
[27] = S. marcescens IAM 1184, 10^6 CFU/ml
[28] = read-out: Minimum Inhibitory Concentration (MIC), *S. marcescens No. 16-2, lactamase-producing strain, 10^6 CFU/ml
[29] = read-out: Minimum Inhibitory Concentration (MIC), Ps. aeruginosa AK 109

SMILES | MIC [1] [µg/mL] | MIC [2] [µg/mL] | MIC [3, 21] [µg/mL] | MIC [4] [µg/mL] | MIC [6] [µg/mL] | MIC [7] [µg/mL] | MIC [8] [µg/mL] | MIC [9, 23] [µg/mL] | MIC [10] [µg/mL] | MIC [11] [µg/mL] | MIC [12] [µg/mL] | MIC [17, 22] [µg/mL] | MIC [18] [µg/mL] | MIC [19] [µg/mL] | MIC [20, 24] [µg/mL] | MIC [5, 25] [µg/mL] | MIC [13, 26] [µg/mL] | MIC [14, 27] [µg/mL] | MIC [15, 28] [µg/mL] | MIC [16, 29] [µg/mL] | also measured
Nc1nc(/C(=N/OCC(=O)O)C(=O)N[C@@H]2C(=O)N3C(C(=O)O)=C(CSc4nnc(-c5ccc(O)c(O)c5)o4)CS[C@H]23)cs1 [compound 10, disodium 78-[2-(2-aminothiazol-4-yl)-2-carboxylatemethoxyiminoacetamido]-3-[5-(3,4-dihydroxyphenyl)-1,3,4-oxadiazol-2-yl]thiomethvl-3-cephem-4-carboxylate] | 0.0125 | < 0.006 | 0.025 | 0.05 | 0.05 | 0.1 | 0.025 | < 0.006 | 0.025 | < 0.006 | 0.025 | 12.5 | 0.39 | < 0.006 | 0.05 |  |  |  |  |  | MIC [5, 22]: 0.39 µg/mL; MIC [13]: 12.5 µg/mL; MIC [14]: 0.0125 µg/mL; MIC [15, 22]: 0.39 µg/mL; MIC ([16]; Ps. aeruginosa AK 109, read-out: Minimum Inhibitory Concentration (MIC)): 0.2 µg/mL
CC(=O)Oc1ccc(-c2nc(SCC3=C(C(=O)O)N4C(=O)C(NC(=O)C(=NOC5(C(=O)O)CC5)c5csc(N)n5)C4SC3)sc2CC(=O)O)cc1OC(C)=O (stereo not drawn) [Example 60 (II), trisodium 3-[4-(3,4-diacetoxyphenyl)-5-carboxylate-methylthiazol-2-yl]thiomethyl-78-[2-(2-aminothiazol-4-yl)-2-(1-carboxylate-1-cyclopropoxyimino)acetamido]-3-cephem-4-carboxylate] | 3.12 | 0.0125 |  | 0.2 | 0.78 | 0.1 | 0.1 | < 0.006 | 0.1 | < 0.006 | 0.025 | 3.12 | 0.78 | < 0.006 |  | 0.78 | 25 | 0.05 | 0.78 | 1.56 | MIC ([3]; Enterobacter cloacae, 16 h, E. cloacae 963, read-out: Minimum Inhibitory Concentration (MIC)): 0.2 µg/mL; MIC ([20]; read-out: Minimum Inhibitory Concentration (MIC), A. calcoaceticus No. 4): 0.1 µg/mL
CC(C)(ON=C(C(=O)NC1C(=O)N2C(C(=O)O)=C(CSc3nc(-c4ccc(O)c(O)c4)c(CC(=O)O)s3)CSC12)c1csc(N)n1)C(=O)O (stereo not drawn) [Example 59 (I), trisodium 7β-[2-(2-aminothiazol-4-yl)-2-(1-carboxylate-1-methylethoxyimino)acetamido]-3-[4-(3,4-dihydroxyphenyl)-5-carboxylatemethylthiazol-2yl]thiomethyl-3-cephem-4-carboxylate] | 0.05 | 0.025 | 0.39 | 0.2 | 1.56 | 0.1 | 0.2 |  | 0.1 | 0.025 | 0.1 |  | 1.56 | < 0.006 | 0.2 | 1.56 | 100 | 0.2 | 1.56 | 1.56 | MIC ([9]; K. pneumoniae PCI-602, read-out: Minimum Inhibitory Concentration (MIC)): 0.0125 µg/mL; MIC ([17]; read-out: Minimum Inhibitory Concentration (MIC), Ps. aeruginosa AKR17, 10^6 CFU/ml): 1.56 µg/mL
